The record followed here is patent US20070049564A1 (Wyeth, priority 2005, published 2007).

In general, ED50 refers to the midpoint of the dose-response relation.

Assay [1] has as its system E. coli. The assay can be described thus: Range of MIC for E. coli strains. To be noted: Escherichia coli.
Assay [2] relates to Staph. aureus Smith. The experiment in a line: In vivo activity (oral, iv; ED50) against Staph. aureus Smith in mice.
Experimental: Representative examples of compounds of Formula I were tested for the oral efficacy using S. aureus Smith in mice.
For assay [3], the system named is Staph. The experiment in a line: Range of MIC for Staph. strains, including MRSA. To be noted: Staphylococcus aureus, MRSA.
Where [4] appears, read: 20 h, read-out: Range of MIC, E. coli (Mouse Serum).
Setting [5] is: read-out: Minimum inhibitory concentration (MIC), E. coli (mouse serum).
Where [6] appears, read: read-out: Minimum inhibitory concentration (MIC), E. coli (water).
Where [7] appears, read: read-out: Range of MIC, E. coli (Water).
Setting [8] is: Staphylococcus aureus, in Mus musculus, po, read-out: ED50 Staph Smith SOD.
Where [9] appears, read: iv, read-out: ED50 Staph Smith SIV.
The mark [10] stands for this setting: read-out: Minimum inhibitory concentration (MIC), Staph. (mouse serum).
Where [11] appears, read: read-out: Minimum inhibitory concentration (MIC), Staph. (water).
Where [12] appears, read: read-out: Range of MIC, Staph (Mouse Serum).
[13] abbreviates: read-out: Range of MIC, Staph (Water).

Structures are written as SMILES. Values after ≈ are worked out from the molar mass of the structure shown. Like-named read-outs stand apart in the source and are kept apart here. Bounds are passed on as bounds.

As for `CCCCCCC(=O)OCOC(=O)N(CCCC)CC(=O)Nc1cc(N(C)C)c2c(c1O)C(=O)C1=C(O)[C@]3(O)C(=O)C(C(N)=O)=C(O)[C@@H](N(C)C)[C@@H]3C[C@@H]1C2` [Example 17, ({[(2-{[(5aR,6aS,7S,10aS)-9-(aminocarbonyl)-4,7-bis(dimethylamino)-1,8,10a,11-tetrahydroxy-10,12-dioxo-5,5a,6,6a,7,10,10a,12-octahydrotetracen-2-yl]amino}-2-oxoethyl)(butyl)amino]carbonyl}oxy)methyl heptanoate], the MIC in assay [1] (setting [4]) was 0.5 to 2 µg/mL (≈ 0.648 to 2.59 µM); in assay [1] (setting [5]), 0.5 to 2 µg/mL (≈ 0.648 to 2.59 µM); in assay [1] (setting [6]) it was 32 to 64 µg/mL (≈ 41.5 to 82.9 µM); in assay [1] (setting [7]), 32 to 64 µg/mL (≈ 41.5 to 82.9 µM); in assay [3] (setting [10]), 1 to 4 µg/mL (≈ 1.3 to 5.18 µM); in assay [3] (setting [11]) it was 2 to 32 µg/mL (≈ 2.59 to 41.5 µM). Also, the MIC was 1 to 4 µg/mL (≈ 1.3 to 5.18 µM) in assay [3] (setting [12]) and 2 to 32 µg/mL (≈ 2.59 to 41.5 µM) in assay [3] (setting [13]). Further, the values for the ED50 in assay [2] (setting [8]) and in assay [2] (setting [9]) were 59.9 mg/kg and 1.07 mg/kg, respectively.
`CCCCN(CC(=O)Nc1cc(N(C)C)c2c(c1O)C(=O)C1=C(O)[C@]3(O)C(=O)C(C(N)=O)=C(O)[C@@H](N(C)C)[C@@H]3C[C@@H]1C2)C(=O)OCOC(=O)C1CCC1` [Example 18, ({[(2-{[(5aR,6aS,7S,10aS)-9-(aminocarbonyl)-4,7-bis(dimethylamino)-1,8,10a,11-tetrahydroxy-10,12-dioxo-5,5a,6,6a,7,10,10a,12-octahydrotetracen-2-yl]amino}-2-oxoethyl)(butyl)amino]carbonyl}oxy)methyl cyclobutanecarboxylate]: the MIC in assay [1] (setting [4]) lay in the range of 0.5 to 2 µg/mL (≈ 0.674 to 2.7 µM); in assay [1] (setting [5]), 0.5 to 2 µg/mL (≈ 0.674 to 2.7 µM); in assay [1] (setting [6]), 4 to 8 µg/mL (≈ 5.39 to 10.8 µM); in assay [1] (setting [7]), 4 to 8 µg/mL (≈ 5.39 to 10.8 µM); in assay [3] (setting [10]), 1 to 4 µg/mL (≈ 1.35 to 5.39 µM); in assay [3] (setting [11]), 1 to 4 µg/mL (≈ 1.35 to 5.39 µM). The MIC in assay [3] (setting [12]) and in assay [3] (setting [13]) was 1 to 4 µg/mL (≈ 1.35 to 5.39 µM) throughout. In addition, the ED50 in assay [2] (setting [8]) is 29 mg/kg; in assay [2] (setting [9]), 0.6 mg/kg.
In the case of `Cc1c(C(=O)OCOC(=O)N(CC(=O)Nc2cc(N(C)C)c3c(c2O)C(=O)C2=C(O)[C@]4(O)C(=O)C(C(N)=O)=C(O)[C@@H](N(C)C)[C@@H]4C[C@@H]2C3)C(C)(C)C)oc2ccccc12` [Example 100, ({[(2-{[(5aR,6aS,7S,10aS)-9-(aminocarbonyl)-4,7-bis(dimethylamino)-1,8,10a,11-tetrahydroxy-10,12-dioxo-5,5a,6,6a,7,10,10a,12-octahydrotetracen-2-yl]amino}-2-oxoethyl)(tert-butyl)amino]carbonyl}oxy)methyl 3-methyl-1-benzofuran-2-carboxylate], the MIC in assay [1] (setting [4]) is 2 µg/mL (≈ 2.45 µM); in assay [3] (setting [12]), 0.5 to 1 µg/mL (≈ 0.611 to 1.22 µM); in assay [3] (setting [13]), 2 to 4 µg/mL (≈ 2.45 to 4.89 µM).
On to `CN(C)c1cc(NC(=O)CN(C(=O)OCOC(=O)Cc2cc(C(F)(F)F)cc(C(F)(F)F)c2)C(C)(C)C)c(O)c2c1C[C@H]1C[C@H]3[C@H](N(C)C)C(O)=C(C(N)=O)C(=O)[C@@]3(O)C(O)=C1C2=O` [Example 101, ({[(2-{[(5aR,6aS,7S,10aS)-9-(aminocarbonyl)-4,7-bis(dimethylamino)-1,8,10a,11-tetrahydroxy-10,12-dioxo-5,5a,6,6a,7,10,10a,12-octahydrotetracen-2-yl]amino}-2-oxoethyl)(tert-butyl)amino]carbonyl}oxy)methyl [3,5-bis(trifluoromethyl)phenyl]acetate], for which the MIC in assay [1] (setting [4]) is 1 µg/mL (≈ 1.09 µM); in assay [1] (setting [7]) it was 16 to 32 µg/mL (≈ 17.5 to 35 µM); in assay [3] (setting [12]) it was 0.5 to 2 µg/mL (≈ 0.547 to 2.19 µM); in assay [3] (setting [13]), 4 to 16 µg/mL (≈ 4.38 to 17.5 µM).
As for `CN(C)c1cc(NC(=O)CN(C(=O)OCOC(=O)c2ccccc2CCc2ccccc2)C(C)(C)C)c(O)c2c1C[C@H]1C[C@H]3[C@H](N(C)C)C(O)=C(C(N)=O)C(=O)[C@@]3(O)C(O)=C1C2=O` [Example 103, ({[(2-{[(5aR,6aS,7S,10aS)-9-(aminocarbonyl)-4,7-bis(dimethylamino)-1,8,10a,11-tetrahydroxy-10,12-dioxo-5,5a,6,6a,7,10,10a,12-octahydrotetracen-2-yl]amino}-2-oxoethyl)(tert-butyl)amino]carbonyl}oxy)methyl 2-(2-phenylethyl)benzoate], the results for the MIC in assay [1] (setting [4]), in assay [1] (setting [7]) and in assay [3] (setting [12]) were 8 to 16 µg/mL (≈ 9.22 to 18.4 µM), greater than 64 µg/mL and 8 to 16 µg/mL (≈ 9.22 to 18.4 µM), respectively.
As to `CCCCCCCCCCCCOc1ccc(C(=O)OCOC(=O)N(CC(=O)Nc2cc(N(C)C)c3c(c2O)C(=O)C2=C(O)[C@]4(O)C(=O)C(C(N)=O)=C(O)[C@@H](N(C)C)[C@@H]4C[C@@H]2C3)C(C)(C)C)cc1` [Example 104], the MIC in assay [1] (setting [4]) was 8 to 16 µg/mL (≈ 8.44 to 16.9 µM); in assay [1] (setting [7]), greater than 64 µg/mL; in assay [3] (setting [12]), 16 to 64 µg/mL (≈ 16.9 to 67.5 µM).
The matching figures for `CC(=O)Nc1ccc(C(=O)OCOC(=O)N(CC(=O)Nc2cc(N(C)C)c3c(c2O)C(=O)C2=C(O)[C@]4(O)C(=O)C(C(N)=O)=C(O)[C@@H](N(C)C)[C@@H]4C[C@@H]2C3)C(C)(C)C)cc1` [Example 105]: 2 µg/mL (≈ 2.44 µM), greater than 64 µg/mL and 1 to 2 µg/mL (≈ 1.22 to 2.44 µM).
For `CN(C)c1cc(NC(=O)CN(C(=O)OCOC(=O)c2c3ccccc3cc3ccccc23)C(C)(C)C)c(O)c2c1C[C@H]1C[C@H]3[C@H](N(C)C)C(O)=C(C(N)=O)C(=O)[C@@]3(O)C(O)=C1C2=O` [Example 106, ({[(2-{[(5aR,6aS,7S,10aS)-9-(aminocarbonyl)-4,7-bis(dimethylamino)-1,8,10a,11-tetrahydroxy-10,12-dioxo-5,5a,6,6a,7,10,10a,12-octahydrotetracen-2-yl]amino}-2-oxoethyl)(tert-butyl)amino]carbonyl}oxy)methyl anthracene-9-carboxylate], the MIC in assay [1] (setting [4]), in assay [1] (setting [7]), in assay [3] (setting [12]) and in assay [3] (setting [13]) was greater than 64 µg/mL each time.
With `CN(C)c1cc(NC(=O)CN(C(=O)OCOC(=O)c2ccc(C(=O)c3ccccc3)cc2)C(C)(C)C)c(O)c2c1C[C@H]1C[C@H]3[C@H](N(C)C)C(O)=C(C(N)=O)C(=O)[C@@]3(O)C(O)=C1C2=O` [Example 107, ({[(2-{[(5aR,6aS,7S,10aS)-9-(aminocarbonyl)-4,7-bis(dimethylamino)-1,8,10a,11-tetrahydroxy-10,12-dioxo-5,5a,6,6a,7,10,10a,12-octahydrotetracen-2-yl]amino}-2-oxoethyl)(tert-butyl)amino]carbonyl}oxy)methyl 4-benzoylbenzoate], the MIC in assay [1] (setting [4]) is greater than 64 µg/mL; in assay [1] (setting [7]), 0.5 to 1 µg/mL (≈ 0.576 to 1.15 µM); in assay [3] (setting [12]), 2 to 8 µg/mL (≈ 2.3 to 9.22 µM); in assay [3] (setting [13]), 0.5 to 1 µg/mL (≈ 0.576 to 1.15 µM).
`CCCN(CC(=O)Nc1cc(N(C)C)c2c(c1O)C(=O)C1=C(O)[C@]3(O)C(=O)C(C(N)=O)=C(O)[C@@H](N(C)C)C3CC1C2)C(=O)OCc1oc(=O)oc1-c1ccc(OC)cc1` (stereo partly drawn) [Example 111, [5-(4-methoxyphenyl)-2-oxo-1,3-dioxol-4-yl]methyl 2-{[(7S,10aS)-9-(aminocarbonyl)-4,7-bis(dimethylamino)-1,8,10a,11-tetrahydroxy-10,12-dioxo-5,5a,6,6a,7,10,10a, 12-octahydrotetracen-2-yl]amino}-2-oxoethyl(propyl)carbamate]: the MIC fell in the range of 0.25 to 1 µg/mL (≈ 0.305 to 1.22 µM) in assay [1] (setting [4]), 1 to 4 µg/mL (≈ 1.22 to 4.88 µM) in assay [1] (setting [7]), 0.5 to 8 µg/mL (≈ 0.61 to 9.76 µM) in assay [3] (setting [12]) and 1 to 16 µg/mL (≈ 1.22 to 19.5 µM) in assay [3] (setting [13]).
